The record followed here is patent publication US20230392179A1 (SOOCHOW UNIVERSITY, priority 2021, published 2023).

The test system of the assay is Mycobacterium smegmatis containing plasmid PMV261-Kana^R-65S-RecA intein. Briefly: Intein splicing inhibitor screening system: growth (OD600) of Mycobacterium smegmatis carrying Kana^R-65S-RecA intein in kanamycin medium. As to conditions: 20 μM cisplatin, kanamycin 50 μg/mL plus hygromycin, 37° C., 100 h.

Turning to `N.N.[Cl][Pt][Cl]` [cisplatin], the “inhibition rate of growth of Mycobacterium smegmatis containing plasmid PMV261-Kana^R-65S-RecA intein” value was 62%.
